Our source for the protein melting temperature values is the supplement of paper PMC7806825.

One series concerns McpC ligand-binding domain (Salmonella Typhimurium SL1344). In words: protein melting temperature (Tm) in presence of compound (degrees C); higher = more thermal stabilisation (possible ligand binding). To be noted: Biolog plate: PM01; compound stock concentration: 10-20 mM, 2 uL in 10 uL reaction.
For `OC[C@H]1O[C@@H](O[C@@H]2[C@@H](CO)OC(O)(CO)[C@H]2O)[C@H](O)[C@@H](O)[C@H]1O` (mixture of isomers) [Lactulose], the protein melting temperature turned out to be 44.9.
Take `O=C(O)CC(O)C(=O)O` (racemic) [DL-Malic acid]: the protein melting temperature was 44.5.
Consider `O=P(O)(O)OC[C@H](O)CO` (racemic) [DL-a-Glycerol Phosphate], for which the protein melting temperature amounted to 44.6.
With `CC(O)CO` (centres undefined) [1,2-Propanediol], the protein melting temperature is 44.8.
On the same count and under the same terms, the same measure for `NCCO` [2-Aminoethanol]: 44.3; for `Nc1ncnc2c1ncn2[C@H]1C[C@H](O)[C@@H](CO)O1` [2`-Deoxyadenosine]: 43.9; for `CC(=O)CC(=O)O` [Acetoacetic acid]: 44.6.

The same series, now with this note: Biolog plate: PM02A; compound stock concentration: 10-20 mM, 2 uL in 10 uL reaction.
`C[N+](C)(C)CC(O)CC(=O)[O-]` (racemic) [D,L-Carnitine]: the protein melting temperature is 44.4.
Still for that read-out and setting: the same measure for `NCC(O)c1ccc(O)cc1` (racemic) [D,L-Octopamine]: 43.9; for `CC(O)C(C)O` (centres undefined) [2,3-Butanediol]: 44.2; for `CC(=O)C(C)=O` [2,3-Butanedione]: 43.9.
On the same count and under the same terms, the same measure for `O=C(O)c1ccccc1O` [2-Hydroxybenzoic acid]: 45.4; for `CC(=O)C(C)O` (centres undefined) [3-Hydroxy-2-butanone]: 43.5.
Turning to `O=C[C@@H](O)[C@H](O[C@@H]1O[C@H](CO)[C@H](O)[C@H](O)[C@H]1O)[C@H](O)CO` [3-O-b-D-Galactopyranosyl-D-Arabinose], the protein melting temperature came to 44.5.
On the same count and under the same terms, the result for `O=C(O)c1ccc(O)cc1` [4-Hydroxybenzoic acid] reads 43.3; that for `O=C(CO)[C@@H](O)[C@H](O)[C@@H](O)C(=O)O` [5-Keto-D-Gluconic acid], 43.9.

The series is the same for the next values; noted with them: Biolog plate: PM03B; compound stock concentration: 10-20 mM, 2 uL in 10 uL reaction.
On to `CC(O)C(N)=O` (racemic) [DL-Lactamide], for which the protein melting temperature came to 45.6.
`CCC(N)C(=O)O` (racemic) [DL-a-Amino-N-Butyric acid]: the protein melting temperature was 44.3.

Staying with this series, now noted: Biolog plate: PM04A; compound stock concentration: 10-20 mM, 2 uL in 10 uL reaction.
In the case of `CCSCCC(N)C(=O)O` (racemic) [DL-Ethionine], the protein melting temperature was determined as 43.9.
Consider `NC(=O)CCCCC1CCSS1` (racemic) [DL-Lipoamide], for which the protein melting temperature worked out at 44.4.
Same read-out and setting: the result for `O=P(O)(O)OC[C@H](O)CO` (racemic) [DL-a-Glycerol Phosphate] reads 44.4; that for `CSCCC(NC(C)=O)C(=O)O` (racemic) [N-Acetyl-D,L-Methionine], 43.7.
As to `OC[C@H]1O[C@@H](S)[C@H](O)[C@@H](O)[C@@H]1O` [1-Thio-b-D-Glucose], the protein melting temperature turned out to be 44.5.
In the case of `NCCP(=O)(O)O` [2-Aminoethyl Phosphonic acid], the protein melting temperature was determined as 43.6.
Same read-out and setting: the same measure for `O=S(=O)(O)CCO` [2-Hydroxyethane Sulfonic acid]: 44.6; for `O=C(O)[C@H](O)[C@@H](O)[C@H](O)[C@H](O)COP(=O)(O)O` [6-Phospho-Gluconic acid]: 43.6.

The series is the same for the next values; noted with them: Biolog plate: PM05; compound stock concentration: 10-20 mM, 2 uL in 10 uL reaction.
As for `C[N+](C)(C)CC(O)CC(=O)[O-]` (racemic) [DL-Carnitine], the protein melting temperature stood at 43.7.
On to `CC1(O)CCOC(=O)C1` (racemic) [DL-Mevalonic acid Lactone], for which the protein melting temperature came to 43.8.
`Nc1ncnc2c1ncn2[C@H]1C[C@H](O)[C@@H](CO)O1` [2`-Deoxyadenosine]: the protein melting temperature is 44.
Still for that read-out and setting: the same measure for `Nc1ccn([C@H]2C[C@H](O)[C@@H](CO)O2)c(=O)n1` [2`-Deoxycytidine]: 44.3; for `Nc1nc2c(ncn2[C@H]2C[C@H](O)[C@@H](CO)O2)c(=O)[nH]1` [2`-Deoxyguanosine]: 43.7; for `O=c1[nH]cnc2c1ncn2[C@H]1C[C@H](O)[C@@H](CO)O1` [2`-Deoxyinosine]: 43.9.
For `O=c1ccn([C@H]2C[C@H](O)[C@@H](CO)O2)c(=O)[nH]1` [2`-Deoxyuridine], the protein melting temperature amounted to 44.4.
Take `NC(=O)c1[nH]cnc1N` [(5) 4-Amino-Imidazole-4(5)-Carboxamide]: the protein melting temperature stood at 43.7.
